Test results as given in ChEMBL document CHEMBL4043281, “Development of a peptide-based inducer of protein degradation targeting NOTCH1” (Bioorg Med Chem Lett, 2017).
Calls of active or inactive are those of the source. No cut-off for these calls is given here. Positions of bridges follow the written chain, without caps; N, C: chain ends. Non-standard residues stand in square brackets, D forms with d. Residues, ends and D or L forms follow the SMILES beside them. Dip = N[C@H](C(=O)O)C(c1ccccc1)c1ccccc1; Chg = N[C@H](C(=O)O)C1CCCCC1; S5 = C=CCCC[C@](C)(N)C(=O)O; NMeA = CN[C@@H](C)C(=O)O; AEEA = NCCOCCOCC(=O)O; βAla = NCCC(=O)O

Key:
[1] = tested on: MOLT-4; test: Cytotoxicity against human MOLT4 cells at >100 uM; format: cell-based
[2] = tested on: MOLT-4; test: Induction of CSL protein degradation in human MOLT4 cells assessed as ratio of CSL to lamin protein level at 60 uM after 6 hrs by Western blot analysis (reference value: 100%); format: functional
[3] = species on record: Homo sapiens; test: Induction of IAP-mediated NOTCH1 protein degradation in human MOLT4 cells assessed as ratio of NOTCH1 to lamin protein level at 80 uM after 6 hrs by Western blot analysis (reference value: 100%); format: cell-based
[4] = tested on: MOLT-4; test: Induction of CSL protein degradation in human MOLT4 cells assessed as ratio of CSL to lamin protein level at 80 uM after 6 hrs by Western blot analysis (reference value: 100%); format: functional
[5] = species on record: Homo sapiens; test: Induction of IAP-mediated NOTCH1 protein degradation in human MOLT4 cells assessed as ratio of NOTCH1 to lamin protein level at 100 uM after 6 hrs by Western blot analysis (reference value: 91%); format: cell-based
[6] = species on record: Homo sapiens; test: Induction of IAP-mediated NOTCH1 protein degradation in human MOLT4 cells assessed as reduction in c-Myc level by measuring ratio of c-Myc to beta-actin protein level at 80 uM after 2 hrs by Western blot analysis (reference value: 100%); format: cell-based
[7] = species on record: Homo sapiens; test: Induction of IAP-mediated NOTCH1 protein degradation in human MOLT4 cells assessed as ratio of NOTCH1 to beta-actin protein level at 80 uM after 2 hrs by Western blot analysis (reference value: 100%); format: cell-based
[8] = species on record: Homo sapiens; test: Induction of IAP-mediated NOTCH1 protein degradation in human MOLT4 cells assessed as reduction in c-Myc level by measuring ratio of c-Myc to beta-actin protein level at 80 uM after 8 hrs by Western blot analysis (reference value: 100%); format: cell-based
[9] = species on record: Homo sapiens; test: Induction of IAP-mediated NOTCH1 protein degradation in human MOLT4 cells assessed as ratio of NOTCH1 to lamin protein level at 60 uM after 6 hrs in presence of proteasome inhibitor MG132 by Western blot analysis (reference value: 100%); format: cell-based
[10] = species on record: Homo sapiens; test: Induction of IAP-mediated NOTCH1 protein degradation in human MOLT4 cells assessed as reduction in c-Myc level at 80 uM by Western blot analysis; format: cell-based; settings: TDE = time-dependent effect
[11] = tested on: MOLT-4; test: Induction of CSL protein degradation in human MOLT4 cells assessed as ratio of CSL to lamin protein level at 50 uM after 6 hrs by Western blot analysis (reference value: 100%); format: functional
[12] = species on record: Homo sapiens; test: Induction of IAP-mediated NOTCH1 protein degradation in human MOLT4 cells assessed as ratio of NOTCH1 to beta-actin protein level at 80 uM after 8 hrs by Western blot analysis (reference value: 100%); format: cell-based
[13] = tested on: MOLT-4; test: Induction of CSL protein degradation in human MOLT4 cells assessed as ratio of CSL to lamin protein level at 100 uM after 6 hrs by Western blot analysis (reference value: 111%); format: functional
[14] = species on record: Homo sapiens; test: Induction of IAP-mediated NOTCH1 protein degradation in human MOLT4 cells assessed as ratio of NOTCH1 to lamin protein level at 60 uM after 6 hrs by Western blot analysis (reference value: 100%); format: cell-based
[15] = species on record: Homo sapiens; test: Induction of IAP-mediated NOTCH1 protein degradation in human MOLT4 cells assessed as ratio of NOTCH1 to beta-actin protein level at 80 uM after 6 hrs by Western blot analysis (reference value: 100%); format: cell-based
[16] = tested on: MOLT-4; test: Induction of CSL protein degradation in human MOLT4 cells assessed as ratio of CSL to lamin protein level at 20 uM after 6 hrs by Western blot analysis (reference value: 111%); format: functional
[17] = species on record: Homo sapiens; test: Induction of IAP-mediated NOTCH1 protein degradation in human MOLT4 cells assessed as ratio of NOTCH1 to lamin protein level at 20 uM after 6 hrs by Western blot analysis (reference value: 91%); format: cell-based
[18] = species on record: Homo sapiens; test: Induction of IAP-mediated NOTCH1 protein degradation in human MOLT4 cells assessed as ratio of NOTCH1 to beta-actin protein level at 80 uM after 4 hrs by Western blot analysis (reference value: 100%); format: cell-based
[19] = species on record: Homo sapiens; test: Induction of IAP-mediated NOTCH1 protein degradation in human MOLT4 cells assessed as reduction in c-Myc level by measuring ratio of c-Myc to beta-actin protein level at 80 uM after 10 hrs by Western blot analysis (reference value: 100%); format: cell-based
[20] = tested on: MOLT-4; test: Induction of CSL protein degradation in human MOLT4 cells assessed as ratio of CSL to lamin protein level at 70 uM after 6 hrs by Western blot analysis (reference value: 100%); format: functional
[21] = tested on: MOLT-4; test: Induction of CSL protein degradation in human MOLT4 cells assessed as ratio of CSL to lamin protein level at 50 uM after 6 hrs by Western blot analysis (reference value: 111%); format: functional
[22] = species on record: Homo sapiens; test: Induction of IAP-mediated NOTCH1 protein degradation in human MOLT4 cells assessed as ratio of NOTCH1 to lamin protein level at 70 uM after 6 hrs in presence of proteasome inhibitor MG132 by Western blot analysis (reference value: 100%); format: cell-based
[23] = species on record: Homo sapiens; test: Induction of IAP-mediated NOTCH1 protein degradation in human MOLT4 cells assessed as ratio of NOTCH1 to lamin protein level at 80 uM after 6 hrs in presence of proteasome inhibitor MG132 by Western blot analysis (reference value: 100%); format: cell-based
[24] = species on record: Homo sapiens; test: Induction of IAP-mediated NOTCH1 protein degradation in human MOLT4 cells assessed as reduction in c-Myc level by measuring ratio of c-Myc to beta-actin protein level at 80 uM after 6 hrs by Western blot analysis (reference value: 100%); format: cell-based
[25] = species on record: Homo sapiens; test: Induction of IAP-mediated NOTCH1 protein degradation in human MOLT4 cells assessed as ratio of NOTCH1 to lamin protein level at 50 uM after 6 hrs by Western blot analysis (reference value: 100%); format: cell-based
[26] = species on record: Homo sapiens; test: Antagonist activity IAP in human MOLT4 cells assessed as reduction in cIAP1 protein level at 50 to 80 uM after 6 hrs by Western blot analysis; format: cell-based
[27] = species on record: Homo sapiens; test: Induction of IAP-mediated NOTCH1 protein degradation in human MOLT4 cells assessed as ratio of NOTCH1 to lamin protein level at 70 uM after 6 hrs by Western blot analysis (reference value: 100%); format: cell-based
[28] = species on record: Homo sapiens; test: Induction of IAP-mediated NOTCH1 protein degradation in human MOLT4 cells assessed as ratio of NOTCH1 to beta-actin protein level at 80 uM after 10 hrs by Western blot analysis (reference value: 100%); format: cell-based
[29] = species on record: Homo sapiens; test: Induction of IAP-mediated NOTCH1 protein degradation in human MOLT4 cells assessed as reduction in c-Myc level by measuring ratio of c-Myc to beta-actin protein level at 80 uM after 4 hrs by Western blot analysis (reference value: 100%); format: cell-based
[30] = species on record: Homo sapiens; test: Induction of IAP-mediated NOTCH1 protein degradation in human MOLT4 cells assessed as ratio of NOTCH1 to lamin protein level at 50 uM after 6 hrs by Western blot analysis (reference value: 91%); format: cell-based
[31] = species on record: Homo sapiens; test: Induction of IAP-mediated NOTCH1 protein degradation in human MOLT4 cells assessed as ratio of NOTCH1 to lamin protein level at 20 uM after 6 hrs by Western blot analysis (reference value: 100%); format: cell-based
[32] = tested on: MOLT-4; test: Induction of CSL protein degradation in human MOLT4 cells assessed as ratio of CSL to lamin protein level at 20 uM after 6 hrs by Western blot analysis (reference value: 100%); format: functional
[33] = tested on: MOLT-4; test: Induction of CSL protein degradation in human MOLT4 cells assessed as ratio of CSL to lamin protein level at 100 uM after 6 hrs by Western blot analysis (reference value: 100%); format: functional
[34] = species on record: Homo sapiens; test: Induction of IAP-mediated NOTCH1 protein degradation in human MOLT4 cells assessed as ratio of NOTCH1 to lamin protein level at 100 uM after 6 hrs by Western blot analysis (reference value: 100%); format: cell-based

Compound: CC[C@H](C)[C@H](NC(=O)[C@H](CCCNC(=N)N)NC(=O)[C@H](CCCNC(=N)N)NC(=O)[C@H](CCCNC(=N)N)NC(=O)[C@H](CC(C)C)NC(=O)[C@H](CCCNC(=N)N)NC(=O)[C@H](CCC(=O)O)NC(=O)CCNC(=O)COCCOCCNC(=O)COCCOCCNC(=O)[C@@H](NC(=O)[C@@H]1CCCN1C(=O)[C@@H](NC(=O)[C@H](C)NC)C1CCCCC1)C(c1ccccc1)c1ccccc1)C(=O)N[C@@]1(C)CCC/C=C\CCC[C@@](C)(C(=O)N[C@@H](CCCNC(=N)N)C(=O)N[C@@H](Cc2cnc[nH]2)C(=O)N[C@@H](Cc2cnc[nH]2)C(=O)N[C@@H](CO)C(=O)N[C@H](C(=O)O)[C@@H](C)O)NC(=O)[C@H](CS)NC(=O)[C@H](CC(C)C)NC1=O (H-[NMeA][Chg]P[Dip][AEEA][AEEA][βAla]ERLRRRI[S5]LC[S5]RHHST-OH; staple (Z) 15-18)
- Activity [1]: Toxic
- Ratio [2]: 108%
- Ratio [3]: 48 to 67%
- Ratio [4]: 118%
- Ratio [5]: 30%
- Ratio [6]: 62%
- Ratio [7]: 67%
- Ratio [8]: 56%
- Ratio [9]: 92%
- Activity [10]: Tde
- Ratio [11]: 110%
- Ratio [12]: 56%
- Ratio [13]: 83%
- Ratio [14]: 72 to 75%
- Ratio [15]: 54%
- Ratio [16]: 114%
- Ratio [17]: 99%
- Ratio [18]: 52%
- Ratio [19]: 43%
- Ratio [20]: 112%
- Ratio [21]: 99%
- Ratio [22]: 108%
- Ratio [23]: 110%
- Ratio [24]: 63%
- Ratio [25]: 88%
- inhibition [26]: Active
- Ratio [27]: 63 to 70%
- Ratio [28]: 43%
- Ratio [29]: 73%
- Ratio [30]: 76%

Compound: CC[C@H](C)[C@H](NC(=O)[C@H](CCCNC(=N)N)NC(=O)[C@H](CCCNC(=N)N)NC(=O)[C@H](CCCNC(=N)N)NC(=O)[C@H](CC(C)C)NC(=O)[C@H](CCCNC(=N)N)NC(=O)[C@H](CCC(=O)O)NC(=O)CCNC(=O)COCCOCCNC(=O)[C@@H](NC(=O)[C@@H]1CCCN1C(=O)[C@@H](NC(=O)[C@H](C)NC)C1CCCCC1)C(c1ccccc1)c1ccccc1)C(=O)N[C@@H](CCC(=O)O)C(=O)N[C@@H](CC(C)C)C(=O)N[C@@H](CS)C(=O)N[C@@H](CCCNC(=N)N)C(=O)N[C@@H](CCCNC(=N)N)C(=O)N[C@@H](Cc1cnc[nH]1)C(=O)N[C@@H](Cc1cnc[nH]1)C(=O)N[C@@H](CO)C(=O)N[C@H](C(=O)O)[C@@H](C)O (H-[NMeA][Chg]P[Dip][AEEA][βAla]ERLRRRIELCRRHHST-OH)
- Activity [1]: Toxic
- Ratio [31]: 116%
- Ratio [32]: 115%
- Ratio [11]: 108%
- Ratio [33]: 99%
- Ratio [34]: 85%
- Ratio [25]: 100%
